According to publication PMC4957076, “Shared mechanism of teratogenicity of anti-angiogenic drugs identified in the chicken embryo model” (Scientific Reports, 2016):
Like-named read-outs stand apart in the source and are kept apart here.

Tests used:
chicken embryos [1] = details: for survival rate: 48 hours post drug application
Description: We then administered the compounds to developing chicken embryos to observe any teratogenic effects. […] At 48 hours post drug application both the survival rate and the incidence of defects were analyzed. A range of concentrations was tested to determine the effects and optimal concentration that was not 100% lethal.
Fertilized white leghorn chicken embryos purchased from Henry Stewart Ltd. (Herefordshire, United Kingdom) were maintained in an incubator as described previously. At Hamburger and Hamilton stage 18–20 (E2.5-3)[54] the eggs were windowed and the embryos were prepared for drug exposure. To establish a dose response the drugs were applied once to the embryos and growth was monitored as described previously. In a second set of experiments, filter paper squares were cut 100 μm × 100 μm and soaked in the compound of interest for 10 minutes. While the filter paper squares absorbed the solution, embryonic membranes were removed and the sponge was then placed onto the limb bud. The eggs were sealed with tape and returned to an incubator. The embryos were checked daily for developmental defects and to ensure the filter paper squares remained in place. Control embryos were treated with 100 μL PBS with 0.1% DMSO. Embryos were removed from the eggs and fixed in 5% TCA at 4 degrees for 24 hours. Embryos were then washed in alcian blue for 8 hours, and placed in acid ethanol over night before being dehydrated in 100% ethanol for three one hour treatments. The tissue was then cleared in methyl salicylate. Cartilage was imaged and subsequently measured using a graticule scale and ImageJ. A minimum of 8 embryos was used per drug, per concentration. All animal work was licensed and carried out in accordance with and with approval of UK Home Office and Institutional ethical and welfare guidelines.

HUVEC cells = experiment: Endothelial cell proliferation assay (CCK-8); format: cell-based, Human; details: 18 hours exposure, CCK-8 assay, n = 9
Description: Anti-angiogenic drugs were screened in a concentration gradient in the HUVEC culture assay. […] Cell proliferation was assessed using a CCK-8 assay (Dojindo). Statistical analysis by two-way Anova. Error represents the standard error of the mean.
HUVEC cells were purchased from ATCC (Manassas, VA) and cultured as previously described. No further authentication was performed. Cells were seeded at 6.5 × 10^4 cells per well in 100 μL of medium per well. Drugs were diluted in prewarmed DMEM. Serial dilutions were performed from 1000–0.1 nM. The cells were left to grow for 18 hours with exposure to vehicle control (DMSO) or drugs. Experiments were done in triplicate each time. Cellular proliferation was assessed using a CCK-8 assay (Dojindo, Rockville, MD). All plates were read at 450 nm.

chicken embryos [2] = details: cited from earlier work
[3] = system: fli1:EGFP zebrafish embryos; experiment: fli1:EGFP zebrafish embryo exposure: survival and intersegmental vessel development; format: in vivo; details: for survival: 24 hours after exposure; for relative potency in reducing vessel outgrowth: concentration gradient, within 24 hours of drug exposure
Description: We then examined the extent and nature of the anti-angiogenic effects of the compounds using transgenic fli1:EGFP zebrafish embryos. The vasculature of these fish is tagged with EGFP and the transparency of the zebrafish allows for visualization of the forming blood vessels and any effect of anti-cancer drugs on their development over time (Fig. 4). A known anti-angiogenic and teratogenic compound (CPS49) was screened alongside the drugs as a positive control at 10 μg/mL (30 μM), a previously established anti-angiogenic concentration.
fli1:EGFP zebrafish were obtained from the Zebrafish international Resource Centre[29] and maintained in an approved aquarium habitat at 28 °C. At 24 hours post fertilization (hpf) the embryos were checked for GFP expression using a fluorescent microscope and manually dechorionated with forceps, exposed to either a vehicle control, or an anti-angiogenic anti-cancer compound (at 24 hpf) for 24 hours and imaged at 48 hpf. At this point the embryos were anaesthetized in 0.1% tricaine and the length and number of intersegmental vessels (ISV) were quantified as previously described. A minimum of 10 embryos were screened per drug, per concentration, and experiments were performed in triplicate.

[4] = human; cited from earlier work
Rat = details: cited from earlier work; for Systemic exposure (AUC) compared to human exposure: exposure at which defects were produced
Rabbit = details: cited from earlier work; for Systemic exposure (AUC) compared to human exposure: exposure at which defects were produced
Mouse = details: cited from earlier work
[5] = system: Mouse (strain specific) Rabbit; parameters: method as in PMID 11006136; details: cited from earlier work
[6] = 2.5 μg/embryo, global treatment

For `O=C1c2c(F)c(F)c(F)c(F)c2C(=O)N1c1ccc(F)cc1F` [CPS49], the “Defects produced in chicken embryos” value (chicken embryos [1]; Table 1 summary) is listed as “Embryolethality, cranial hemorrhaging, micropthalmia, limb defects, spine”, the IC50 (HUVEC cells) is listed as < 50 nM and the “anti-angiogenic activity in chicken embryo” value (chicken embryos [2]; 10 μg/embryo) is listed as “potent anti-angiogenic activity”. The “blood vessel outgrowth and number of forming vessels” value ([3]; 10 μg/mL (30 μM), versus vehicle control 0.1% DMSO) was “significant reduction in both blood vessel outgrowth and the number of forming vessels” and the survival ([3]; 10 μg/mL) was 50%.

For `Cc1ccc(Nc2nccc(N(C)c3ccc4c(C)n(C)nc4c3)n2)cc1S(N)(=O)=O` [Pazopanib, pazopanib], the “Clinical Toxicities” value [4] is given as “Cardiotoxicity”, the survival rate (chicken embryos [1]; 1 μg/embryo, global treatment) is given as 16% and the survival rate (chicken embryos [1]; [6]) is given as 22%. The survival rate (chicken embryos [1]; 5 μg/embryo, global treatment) was 30%, the “Defects produced in chicken embryos” value (chicken embryos [1]; Table 1 summary) was “Embryolethality increased, limb, spine, necrosis of YSM” and the “defects observed in treated embryos” value (chicken embryos [1]; in vivo) was “malformation of the blood vessels and necrosis in the YSM, and twisted spinal cords”. The “IC50, endothelial cell proliferation” value (HUVEC cells) was “one of the highest IC50s in vitro”, the Defects produced (Rat; Rat) was “Teratogenic, embryotoxic, fetotoxic & abortifacient. Cardiovascular malformations, incomplete/absent ossification, reduced fetal body weight, pre- and post-implantation embryolethality” and the “Systemic exposure (AUC) compared to human exposure” value (Rat; Rat) was 0.1×. The survival ([3]; 10 μg/mL) was “did not affect the survival”, the survival ([3]; 50 μg/mL) was 83.33% and the survival ([3]; 100 μg/mL) was 50%. The “relative potency in reducing vessel outgrowth” value [3] was “most potent”, the Defects produced (Rabbit; Rabbit) was “Increased post-implantation loss, abortion, 100% litter loss” and the “Systemic exposure (AUC) compared to human exposure” value (Rabbit; Rabbit) was 0.02×.

In the case of `CCN(CC)CCNC(=O)c1c(C)[nH]c(/C=C2\C(=O)Nc3ccc(F)cc32)c1C` [Sunitinib, sunitinib], the “Clinical Toxicities” value [4] is listed as “Cardiotoxicity”, the survival rate (chicken embryos [1]; 5 μg/embryo, global treatment) is listed as 72% and the “Defects produced in chicken embryos” value (chicken embryos [1]; in vivo) is listed as “Embryolethality increased, limb, spinal, microopthalmia, growth inhibition, necrosis of YSM”. The “defects observed in treated embryos” value (chicken embryos [1]; in vivo) was “in most embryos limb defects were observed, some also exhibited microopthalmia and spinal cord twisting”, the IC50 (HUVEC cells; Homo sapiens) was < 10 nM and the “Systemic exposure (AUC) compared to human exposure” value (Rat; Rat) was 5.5×. The Defects produced (Rat; rat, in vivo) was “Embryolethality increased, fetal skeletal malformations (ribs/vertebrae)”, the survival ([3]; 10 μg/mL) was 61.90% and the survival ([3]; 50 μg/mL) was 21.05%. For the same compound, the survival ([3]; 100 μg/mL) was 0%, the “relative potency in reducing vessel outgrowth” value [3] was “most potent” and the “Systemic exposure (AUC) compared to human exposure” value (Rabbit; Rabbit) was 0.3×. For the same compound, the Defects produced (Rabbit; rabbit, in vivo) was “Increased embryolethality, cleft palate malformations”.

In the case of bevacizumab, the embryotoxicity in rats (Rat; rat, in vivo) is given as “embryotoxicity”, the “placental transfer in rats” value (Rat; rat, in vivo) is given as “dose-dependent placental transfer” and the teratogenicity in rabbits (Rabbit; rabbit, in vivo, iv) is given as “teratogenicity”.

For `CNC(=O)c1ccccc1Sc1ccc2c(/C=C/c3ccccn3)n[nH]c2c1` [Axitinib, axitinib], the “Clinical Toxicities” value [4] is listed as “Cardiotoxicity”, the survival rate (chicken embryos [1]; [6]) is listed as 55.5% and the survival rate (chicken embryos [1]; 5 μg/embryo, global treatment) is listed as “no embryos survived”. For the same compound, the “Defects produced in chicken embryos” value (chicken embryos [1]; Table 1 summary) was “Embryolethality increased, limb, growth inhibition, necrosis of YSM”, the “defects observed in treated embryos” value (chicken embryos [1]; global treatment, surviving embryos) was “most embryos exhibited necrosis within the surrounding YSM and hemorrhaging” and the survival ([3]; 10 μg/mL) was 40%. The survival ([3]; 50 μg/mL) was 42.12%, the survival ([3]; 100 μg/mL) was 38.89% and the “Systemic exposure (AUC) compared to human exposure” value (Mouse; Mouse/Mice) was 10×. For the same compound, the Defects produced (Mouse; mouse, in vivo) was “Increased post implantation loss, cleft palate malformation, variation in skeletal ossification”.

In the case of `COc1cc2c(Nc3ccc(Br)cc3F)ncnc2cc1OCC1CCN(C)CC1` [Vandetanib, vandetanib], the “Clinical Toxicities” value [4] is given as “Cardiotoxicity”, the survival rate (chicken embryos [1]; 5 μg/embryo, global treatment) is given as “no death occurred” and the survival rate (chicken embryos [1]; 10 μg/embryo, global treatment) is given as 74%. For the same compound, the “Defects produced in chicken embryos” value (chicken embryos [1]; Table 1 summary) was “Embryolethality increased, limb, spine, microopthalmia, necrosis of YSM”, the “defects observed in treated embryos” value (chicken embryos [1]; in vivo) was “limb reductions, micropthalmia, twisted spinal cords, and necrosis and hemorrhaging in the YSM” and the Defects produced (Rat; Rat) was “Increased pre- & post-implantation loss, malformations of heart vessels, skeletal variations, delayed ossification of the skull, vertebrae & sternum”. The survival ([3]; 10 μg/mL) was 60%, the survival ([3]; 50 μg/mL) was 15.38% and the survival ([3]; 100 μg/mL) was 10%. The “relative potency in reducing vessel outgrowth” value [3] was “least potent”.

In the case of `Nc1cccc2c1C(=O)N(C1CCC(=O)NC1=O)C2=O` (stereo not shown) [pomalidomide], the “teratogenicity in chicken embryos” value (chicken embryos [2]; at potent anti-inflammatory doses) is given as “not teratogenic”.

In the case of `O=C1CCC(N2C(=O)c3ccccc3C2=O)C(=O)N1` (stereo not shown) [Thalidomide, thalidomide], the “Clinical Toxicities” value [4] is given as “Somnolence, constipation, neuropathy, venous thromboembolism and rash/unknown”, the Defects produced [5] is given as “Increased resorptions, embryotoxicity, eye defects” and the “Systemic exposure (AUC) compared to human exposure” value [5] is given as “At recommended human dose/Not applicable”. For the same compound, the “Defects produced in chicken embryos” value (chicken embryos [2]; thalidomide not tested in this paper) was “Embryolethality, cranial hemorrhaging, micropthalmia, limb defects, spine”.

For `CNC(=O)c1cc(Oc2ccc(NC(=O)Nc3ccc(Cl)c(C(F)(F)F)c3)cc2)ccn1` [Sorafenib, sorafenib], the “Clinical Toxicities” value [4] is given as “Cardiotoxicity”, the survival rate (chicken embryos [1]; 5 μg/embryo, global treatment) is given as 54.5% and the survival rate (chicken embryos [1]; 10 μg/embryo, global treatment) is given as 47%. The “Defects produced in chicken embryos” value (chicken embryos [1]; in vivo) was “Embryolethality increased, limb, growth inhibition, necrosis of YSM”, the IC50 (HUVEC cells; Homo sapiens) was < 50 nM and the Defects produced (Rat; Rat) was “Increased post implantation loss, resorptions, skeletal retardations, retarded fetal weight”. The “Systemic exposure (AUC) compared to human exposure” value (Rat; Rat) was 0.008×, the survival ([3]; 10 μg/mL) was 18.18% and the survival ([3]; 50 μg/mL) was 15.38%. For the same compound, the survival ([3]; 100 μg/mL) was “No embryos survived”, the “relative potency in reducing vessel outgrowth” value [3] was “most potent” and the Defects produced (Rabbit; Rabbit) was “Increased post implantation loss, resorptions, skeletal retardations, retarded fetal weight”. For the same compound, the “Systemic exposure (AUC) compared to human exposure” value (Rabbit; Rabbit) was 0.008×.

In the case of `CO[C@H]1C[C@@H]2CC[C@@H](C)[C@@](O)(O2)C(=O)C(=O)N2CCCC[C@H]2C(=O)O[C@H]([C@H](C)C[C@@H]2CC[C@@H](OCCO)[C@H](OC)C2)CC(=O)[C@H](C)/C=C(\C)[C@@H](O)[C@@H](OC)C(=O)[C@H](C)C[C@H](C)/C=C/C=C/C=C/1C` [Everolimus, everolimus], the “Clinical Toxicities” value [4] is listed as “Stomatitis, noninfectious pneumonitis, rash, hyperglycemia and immunosuppression”, the survival rate (chicken embryos [1]; 5 μg/embryo, global treatment) is listed as 80% and the survival rate (chicken embryos [1]; 10 μg/embryo, global treatment) is listed as 62.5%. The “Defects produced in chicken embryos” value (chicken embryos [1]; in vivo) was “Embryolethality increased, limb, spine, microopthalmia, necrosis of YSM”, the “defects observed in treated embryos” value (chicken embryos [1]; in vivo) was “hemorrhaging, spinal cord twisting and necrosis in the YSM” and the IC50 (HUVEC cells; Homo sapiens) was < 10 nM. For the same compound, the Defects produced (Rat; Rat) was “Increased resorption, pre- and post-implantation loss, decreased numbers of live fetuses, malformation and retarded skeletal development”, the “Systemic exposure (AUC) compared to human exposure” value (Rat; Rat) was 0.04× and the survival ([3]; 10 μg/mL) was “did not impact the survival”. The survival ([3]; 50 μg/mL) was “did not impact the survival”, the survival ([3]; 100 μg/mL) was 35.71% and the “relative potency in reducing vessel outgrowth” value [3] was “least potent”. The Defects produced (Rabbit; Rabbit) was “Increased resorptions” and the “Systemic exposure (AUC) compared to human exposure” value (Rabbit; Rabbit) was 1.6×.
